From US20030109537A1, “Methods and materials for treating bone conditions” (priority 2001, published 2003)

Key:
[1] = system: PTH-induced marrow fibrosis and osteoclast resorption; test: Bone histomorphometry in rats given trapidil, continuous PTH or both; type: in vivo, rat; conditions: continuous PTH, significant upon two-way ANOVA
[2] = system: PTH-induced marrow fibrosis and osteoclast resorption; test: as above; type: in vivo, rat
Procedure: Treatment protocol. Three month-old female Sprague-Dawley rats were divided into 4 groups. In group 1 (n=9), osmotic pumps that delivered vehicle alone at a rate of 1 μl/hr for 7 days were implanted in each rat. […] In groups 3 and 4 (n=8 and 10, respectively), osmotic pumps were implanted in each rat that delivered 40 μg/kg/day hPTH at a rate of 1 μl/hr for 7 days. […] Tetracycline (20 mg/kg, Sigma Chemical Co., St. Louis, Mo.) and calcein (20 mg/kg, Sigma) fluorochrome labels were injected at the base of the tail on day 0 (tetracycline) and day 6 (calcein). On day 8, all rats were anesthetized and blood was collected by cardiac puncture. The blood samples were used to determine serum chemistry and PTH levels. Following blood collection, the rats were sacrificed by cervical dislocation, and tibiae were surgically removed and fixed in 70% ethanol for bone histomorphometry.
Bone histomorphometry. Proximal metaphyses were dehydrated in a graded series of ethanol, then infiltrated and embedded in methymethacrylate (Fisher Scientific, Fair Lawn, N.J.). […] Dynamic histomorphometric cancellous bone measurements were made in the unstained sections using fluorescent microscopy to detect the injected tetracycline and calcein markers. After obtaining the cancellous bone measurements, consecutive sections were stained with toluidine blue for bone cell and peritrabecular fibrosis measurements using light microscopy. A standard sampling site of 2.8 mm was located in the secondary spongiosa of the metaphysis at 1.5 mm distal to the growth plate.
All histomorphometric measurements were made with an Osteomeasure image analysis system (OsteoMetrics, Atlanta, Ga.) coupled to a photomicroscope and personal computer. All parameters were calculated according to standardized nomenclature. See, for example, Parfitt et al., J. Bone Miner. […] Bone volume was defined as the percentage of tissue volume consisting of cancellous bone. Tetracycline and calcein labels were determined as the percentage of bone perimeter labeled with fluorochrome. Mineral apposition rate (MAR) was defined as the average width between tetracycline and calcein label divided by interlabel time of 6 days. Bone formation rate (BFR) was defined as the product of MAR and the calcein label perimeter, and was expressed per bone surface (BFR/BS), bone volume (BFR/BV), or tissue volume (BFR/TV). Osteoblast surface was defined as a palisade of large basophilic cuboidal cells directly lying on top of the osteoid, and was expressed as a percent of bone perimeter. Osteoclast surface was defined as the bone perimeter lined by multinucleated cells regardless of the presence of erosion. Fibrotic perimeter was defined as the bone perimeter lined by multilayers of fibroblasts.
Statistical analysis. Multiple group comparisons were determined using one-way analysis of variance (one-way ANOVA) with statistical significance at P<0.05. Differences between pairs of groups were compared by the Fisher's protected least significant difference post-hoc test.
Serum and bone samples were collected after 7 days and analyzed.

[3] = rat proximal tibial metaphysis cancellous bone, day 8, trapidil 40 mg/kg/day s.c., hPTH 40 μg/kg/day continuous, mean ± SEM

How did the “rate of mineral apposition” value [1] turn out when human PTH (1-34) was run?
The value was “slightly increased”.

And the “cancellous bone formation (per bone surface, bone volume, or tissue volume)” value ([2]; continuous PTH, rats)?
Its value is “stimulated”.

What about the “osteoclast-lined surface (Oc.S/BS)” value ([2]; continuous PTH, rats, FIG. 2B) of the same substance?
Its value is “increased”.

What about the peritrabecular fibrosis ([2]; continuous PTH, rats, FIG. 3) of the same substance?
Its peritrabecular fibrosis is “induced extensive peritrabecular fibrosis”.

And the “osteoblast surface (Ob.S/BS)” value ([2]; continuous PTH, trapidil given with continuous PTH, FIG. 2A)?
The value was “increased”.

What about the “effect on cortical bone histomorphometry” value ([2]; fluorochrome-based analysis of tibial metaphyseal sections, rats) of the same substance?
Its value is “neither trapidil nor PTH treatment had any effect”.

What about the “BFR/BS (bone formation rate per bone surface)” value [2, 3] of the same substance?
Its value is 0.71 ± 0.10^ab μm^3/μm^2/day.

What about the “BFR/BV (bone formation rate per bone volume)” value [2, 3] of the same substance?
Its value is 2.30 ± 0.31^ab %.

And the “BFR/TV (bone formation rate per tissue volume)” value [2, 3]?
Its value is 0.63 ± 0.09^ab %.

And the “BV/TV (bone volume per tissue volume)” value [2, 3]?
The value was 27.25 ± 1.14%.

What about the Calcein label [2, 3] of the same substance?
The Calcein label was 48.08 ± 5.35^ab %.

And the “MAR (mineral apposition rate)” value [2, 3]?
The value was 1.29 ± 0.08 μm/day.

And the Tetracycline label [2, 3]?
Its Tetracycline label is 5.65 ± 2.48%.
